Measurements as given in paper PMC4303209, “A novel phosphatidylinositol 3-kinase (PI3K) inhibitor directs a potent FOXO-dependent, p53-independent cell cycle arrest phenotype characterized by the differential induction of a subset of FOXO-regulated genes” (Breast Cancer Research : BCR, 2014).

Test system: MCF-7 breast cancer cells
Experiment: Microarray gene expression analysis (Agilent whole human genome 4 x 44K; compound vs DMSO, LIMMA log2 fold change)
Type: cell-based
Details: Apoptosis genes

## Oc1cccc(-c2nc(N3CCOCC3)c3oc4ncccc4c3n2)c1 [PI-103]
Gene 3329
  HSPD1 log2FC: -0.080
Gene 3336
  HSPE1 log2FC: -0.309
Gene 3357
  HTR2B log2FC: -0.397
Gene 3375
  IAPP log2FC: -0.066
Gene 3397
  ID1 log2FC: 0.070
Gene 3399
  ID3 log2FC: -0.082
Gene 3428
  IFI16 log2FC: 0.334
Gene 3429
  IFI27 log2FC: -0.196
Gene 3433
  IFIT2 log2FC: 1.643
Gene 3437
  IFIT3 log2FC: 0.140
Gene 3458
  IFNG log2FC: -0.040
Gene 3476
  IGBP1 log2FC: 0.178
Gene 3479
  IGF1 log2FC: 0.051
Gene 3480
  IGF1R log2FC: 0.084
Gene 3482
  IGF2R log2FC: 0.351
Gene 3486
  IGFBP3 log2FC: 0.086
Gene 3551
  IKBKB log2FC: 0.122
Gene 3553
  IL1B log2FC: 0.035
Gene 3557
  IL1RN log2FC: -0.235
Gene 3558
  IL2 log2FC: -0.008
Gene 3565
  IL4 log2FC: -0.010
Gene 3569
  IL6 log2FC: 0.006
Gene 3570
  IL6R log2FC: 0.551
Gene 3572
  IL6ST log2FC: 0.257
Gene 3574
  IL7 log2FC: 0.210
Gene 3586
  IL10 log2FC: -0.050
Gene 3604
  TNFRSF9 log2FC: -0.328
Gene 3622
  ING2 log2FC: 0.264
Gene 3624
  INHBA log2FC: -0.687
Gene 3625
  INHBB log2FC: -0.799
Gene 3630
  INS log2FC: -0.043
Gene 3635
  INPP5D log2FC: -0.048
Gene 3640
  INSL3 log2FC: -0.069
Gene 3654
  IRAK1 log2FC: -0.233
Gene 3659
  IRF1 log2FC: -0.382
Gene 3661
  IRF3 log2FC: -0.472
Gene 3663
  IRF5 log2FC: 1.340
Gene 3665
  IRF7 log2FC: 0.353
Gene 3672
  ITGA1 log2FC: 0.190
Gene 3678
  ITGA5 log2FC: -0.454
Gene 3685
  ITGAV log2FC: 0.599
Gene 3688
  ITGB1 log2FC: 0.583
Gene 3708
  ITPR1 log2FC: 0.249
Gene 3714
  JAG2 log2FC: 0.522
Gene 3717
  JAK2 log2FC: 0.369
Gene 3718
  JAK3 log2FC: -0.043
Gene 3725
  JUN log2FC: -0.937
Gene 3778
  KCNMA1 log2FC: 0.170
Gene 3827
  KNG1 log2FC: -0.057
Gene 3836
  KPNA1 log2FC: -0.280
Gene 3837
  KPNB1 log2FC: 0.240
Gene 3856
  KRT8 log2FC: -0.277
Gene 3875
  KRT18 log2FC: -0.442
Gene 3932
  LCK log2FC: -0.114
Gene 3952
  LEP log2FC: -0.051
Gene 3963
  LGALS7 log2FC: -0.229
Gene 3981
  LIG4 log2FC: 0.035
Gene 4000
  LMNA log2FC: -0.013
Gene 4001
  LMNB1 log2FC: -0.018
Gene 4040
  LRP6 log2FC: -0.118
Gene 4055
  LTBR log2FC: -0.111
Gene 4058
  LTK log2FC: -0.062
Gene 4067
  LYN log2FC: -0.359
Gene 4088
  SMAD3 log2FC: 0.243
Gene 4091
  SMAD6 log2FC: 0.083
Gene 4118
  MAL log2FC: -0.429
Gene 4149
  MAX log2FC: -0.351
Gene 4168
  MCF2 log2FC: 0.031
Gene 4170
  MCL1 log2FC: -1.349
Gene 4192
  MDK log2FC: 0.235
Gene 4193
  MDM2 log2FC: -0.113
Gene 4204
  MECP2 log2FC: -0.128
Gene 4205
  MEF2A log2FC: -0.174
Gene 4208
  MEF2C log2FC: 0.238
Gene 4209
  MEF2D log2FC: -0.520
Gene 4217
  MAP3K5 log2FC: -0.660
Gene 4221
  MEN1 log2FC: 0.029
Gene 4254
  KITLG log2FC: -0.218
Gene 4255
  MGMT log2FC: -0.055
Gene 4282
  MIF log2FC: 0.230
Gene 4292
  MLH1 log2FC: 0.343
Gene 4293
  MAP3K9 log2FC: -0.693
Gene 4294
  MAP3K10 log2FC: 0.639
Gene 4296
  MAP3K11 log2FC: -0.577
Gene 4318
  MMP9 log2FC: -0.279
Gene 4331
  MNAT1 log2FC: 0.589
Gene 4335
  MNT log2FC: 1.538
Gene 4353
  MPO log2FC: -0.006
Gene 4435
  CITED1 log2FC: -0.101
Gene 4436
  MSH2 log2FC: 0.786
Gene 4487
  MSX1 log2FC: -0.243
Gene 4582
  MUC1 log2FC: -0.282
Gene 4583
  MUC2 log2FC: -0.081
Gene 4586
  MUC5AC log2FC: -0.288
Gene 4593
  MUSK log2FC: -0.262
Gene 4599
  MX1 log2FC: 0.148
Gene 4609
  MYC log2FC: 0.421
Gene 4615
  MYD88 log2FC: -0.601
Gene 4616
  GADD45B log2FC: 0.857
Gene 4683
  NBN log2FC: 0.619
Gene 4719
  NDUFS1 log2FC: 0.294
Gene 4763
  NF1 log2FC: 0.451
Gene 4776
  NFATC4 log2FC: 0.296
Gene 4780
  NFE2L2 log2FC: 0.540
Gene 4790
  NFKB1 log2FC: -0.256
Gene 4792
  NFKBIA log2FC: -0.656
Gene 4804
  NGFR log2FC: -0.069
Gene 4824
  NKX3-1 log2FC: -0.386
Gene 4830
  NME1 log2FC: 0.199
Gene 4831
  NME2 log2FC: 0.205
Gene 4832
  NME3 log2FC: -0.013
Gene 4836
  NMT1 log2FC: -0.214
Gene 4838
  NODAL log2FC: -0.025
Gene 4846
  NOS3 log2FC: -0.168
Gene 4853
  NOTCH2 log2FC: 0.274
Gene 4869
  NPM1 log2FC: 0.282
Gene 4884
  NPTX1 log2FC: -0.756
Gene 4889
  NPY5R log2FC: -0.042
Gene 4891
  SLC11A2 log2FC: 0.320
Gene 4893
  NRAS log2FC: -0.535
Gene 4908
  NTF3 log2FC: -1.099
Gene 4915
  NTRK2 log2FC: -0.265
Gene 4929
  NR4A2 log2FC: 0.442
Gene 4950
  OCLN log2FC: 0.409
Gene 4976
  OPA1 log2FC: 0.350
Gene 4982
  TNFRSF11B log2FC: 0.966
Gene 5008
  OSM log2FC: -0.008
Gene 5023
  P2RX1 log2FC: -0.016
Gene 5025
  P2RX4 log2FC: 0.348
Gene 5027
  P2RX7 log2FC: -0.319
Gene 5055
  SERPINB2 log2FC: -0.093
Gene 5058
  PAK1 log2FC: 0.071
Gene 5062
  PAK2 log2FC: -0.103
Gene 5071
  PARK2 log2FC: -0.149
Gene 5074
  PAWR log2FC: 0.876
Gene 5077
  PAX3 log2FC: -0.114
Gene 5078
  PAX4 log2FC: -0.073
Gene 5081
  PAX7 log2FC: -0.197
Gene 5116
  PCNT log2FC: 0.446
Gene 5133
  PDCD1 log2FC: -0.284
Gene 5134
  PDCD2 log2FC: -0.282
Gene 5136
  PDE1A log2FC: -0.171
Gene 5163
  PDK1 log2FC: 0.405
Gene 5164
  PDK2 log2FC: 1.524
Gene 5166
  PDK4 log2FC: 0.866
Gene 5170
  PDPK1 log2FC: 0.478
Gene 5245
  PHB log2FC: -0.382
Gene 5272
  SERPINB9 log2FC: -0.438
Gene 5273
  SERPINB10 log2FC: 0.028
Gene 5290
  PIK3CA log2FC: 0.818
Gene 5292
  PIM1 log2FC: 1.292
Gene 5295
  PIK3R1 log2FC: 0.203
Gene 5325
  PLAGL1 log2FC: 0.317
Gene 5326
  PLAGL2 log2FC: -1.296
Gene 5347
  PLK1 log2FC: -0.016
Gene 5359
  PLSCR1 log2FC: 0.371
Gene 5366
  PMAIP1 log2FC: -1.121
